This passage reports IC50 results from patent publication US8580829B2 (Boehringer Ingelheim International GmbH, priority 2010, dated 2013).

Molecules are shown by their SMILES. Read-outs that look alike come from different tables or passages of the source.

Experiment [1] deals with synthesis of LTB4 in human whole blood. Put plainly: human whole blood LTB4 production inhibition assay. It counts as cell-based. Conditions: heparinized human whole blood, calcimycin 20 μM, read-out: hWB LTB4 IC50. In short, it runs like this: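 Heparinized human whole blood preincubated with compound 15 min at 37 °C, then stimulated with calcimycin (20 μM final) for 30 min at 37 °C. Plasma LTB4 measured after low-speed centrifugation by antibody-based homogeneous time-resolved fluorescence.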

Experiment [2] addresses T1, recombinant human FLAP protein (Homo sapiens, UniProt P20292).
T1 construct: made in house; host or cells: Sf9 insect cells (100,000 x g membrane fraction)
T1 sequence (P20292 1-161): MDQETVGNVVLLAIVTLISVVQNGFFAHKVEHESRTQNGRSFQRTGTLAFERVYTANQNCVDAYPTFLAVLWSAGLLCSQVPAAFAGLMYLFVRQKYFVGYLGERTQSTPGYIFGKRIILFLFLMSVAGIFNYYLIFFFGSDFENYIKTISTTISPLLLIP
Description: FLAP binding assay (Scintillation Proximity Assay, displacement of [125I]L-691,831). Conditions: recombinant human FLAP membranes, [125I]L-691,831 probe; read-out: FLAP SPA IC50. In short, it runs like this: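 Membranes came from Sf9 insect cells expressing recombinant human FLAP, collected as the 100,000×g pellet in Tris pH 7.5/MgCl2/EDTA buffer. 5 μg membrane protein was coupled to WGA SPA beads for 1 h.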

As for `COC1CCN(C(=O)Cn2cc(-c3nc(C4(c5ccc(-c6cnc(N)nc6)cc5)CCC4)no3)cn2)C1` (centres unmarked) [Example 210, 2-[4-(3-{1-[4-(2-Amino-pyrimidin-5-yl)-phenyl]-cyclobutyl}-[1,2,4]oxadiazol-5-yl)-pyrazol-1-yl]-1-(3-methoxy-pyrrolidin-1-yl)-ethanone], the results for the concentration for half-maximal inhibition (IC50) in experiment [1] (Homo sapiens) and in experiment [2] were 110 nM and 4.6 nM, respectively.

As to `CCN(CC)C(=O)n1cc(-c2nc(C3(c4ccc(-c5cnc(N)nc5)cc4)CCC3)no2)cn1` [Example 211, 4-(3-{1-[4-(2-Amino-pyrimidin-5-yl)-phenyl]-cyclobutyl}-[1,2,4]oxadiazol-5-yl)-pyrazole-1-carboxylic acid diethylamide], the IC50 in experiment [1] (Homo sapiens) turned out to be 89 nM; in experiment [2] it was 3 nM.

Turning to `Nc1ncc(-c2ccc(C3(c4noc(-c5cnn(C(=O)N6CCOCC6)c5)n4)CCC3)cc2)cn1` [Example 212, [4-(3-{1-[4-(2-Amino-pyrimidin-5-yl)-phenyl]-cyclobutyl}-[1,2,4]oxadiazol-5-yl)-pyrazol-1-yl]-morpholin-4-yl-methanone], the IC50 is 22 nM in experiment [1] (Homo sapiens) and 2.2 nM in experiment [2].

With `CNC(=O)n1cc(-c2nc(C3(c4ccc(-c5cnc(N)nc5)cc4)CCC3)no2)cn1` [Example 213, 4-(3-{1-[4-(2-Amino-pyrimidin-5-yl)-phenyl]-cyclobutyl}-[1,2,4]oxadiazol-5-yl)-pyrazole-1-carboxylic acid methylamide], the figures for the IC50 in experiment [1] (Homo sapiens) and in experiment [2] were 110 nM and 0.85 nM, respectively.

For `Nc1ncc(-c2ccc(C3(c4noc(-c5cnc(N6CCNCC6)cn5)n4)CCC3)cc2)cn1` [Example 214, 5-(4-{1-[5-(3,4,5,6-Tetrahydro-2H-[1,2′]bipyrazinyl-5′-yl)-[1,2,4]oxadiazol-3-yl]-cyclobutyl}-phenyl)-pyrimidin-2-ylamine], the IC50 in experiment [1] was 150 nM; in experiment [2] it was 4 nM.

Regarding `Cn1cc(-c2nc(C3(c4ccc(-c5ccc(N)nc5)cc4)CCC3)no2)cn1` [Example 215, 5-(4-{1-[5-(1-Methyl-1H-pyrazol-4-yl)-[1,2,4]oxadiazol-3-yl]-cyclobutyl}-phenyl)-pyridin-2-ylamine], the half-maximal inhibitory concentration (IC50) in experiment [1] (Homo sapiens) came out at 26 nM; in experiment [2] it was 2.1 nM.

`Nc1ncc(-c2ccc(C3(c4noc(-c5cnn(CCN6CCCC6=O)c5)n4)CCC3)cc2)cn1` [Example 216, 1-{2-[4-(3-{1-[4-(2-Amino-pyrimidin-5-yl)-phenyl]-cyclobutyl}-[1,2,4]oxadiazol-5-yl)-pyrazol-1-yl]-ethyl}-pyrrolidin-2-one]: the IC50 is 59 nM in experiment [1] (Homo sapiens) and 1.3 nM in experiment [2].

Regarding `CC(C)CNC(=O)Cn1cc(-c2nc(C3(c4ccc(-c5cnc(N)nc5)cc4)CCC3)no2)cn1` [Example 217, 2-[4-(3-{1-[4-(2-Amino-pyrimidin-5-yl)-phenyl]-cyclobutyl}-[1,2,4]oxadiazol-5-yl)-pyrazol-1-yl]-N-isobutyl-acetamide], the IC50 in experiment [1] (Homo sapiens) was 81 nM; in experiment [2] it was 3.4 nM.

Take `Nc1ncc(-c2ccc(C3(c4noc(-c5cnn(CC(=O)NC6CCOCC6)c5)n4)CCC3)cc2)cn1` [Example 218, 2-[4-(3-{1-[4-(2-Amino-pyrimidin-5-yl)-phenyl]-cyclobutyl}-[1,2,4]oxadiazol-5-yl)-pyrazol-1-yl]-N-(tetrahydro-pyran-4-yl)-acetamide]: the IC50 in experiment [1] (Homo sapiens) came out at 160 nM; in experiment [2], 1.2 nM.

As for `CN1CCN(C(=O)Cn2cc(-c3nc(C4(c5ccc(-c6cnc(N)nc6)cc5)CCC4)no3)cn2)CC1` [Example 219, 2-[4-(3-{1-[4-(2-Amino-pyrimidin-5-yl)-phenyl]-cyclobutyl}-[1,2,4]oxadiazol-5-yl)-pyrazol-1-yl]-1-(4-methyl-piperazin-1-yl)-ethanone], the IC50 in experiment [1] (Homo sapiens) was determined as 140 nM; in experiment [2], 3.1 nM.

In the case of `Cn1cc(-c2nc(C3(c4ccc(-c5cnc(N)cn5)cc4)CCC3)no2)cn1` [Example 220, 5-(4-{1-[5-(1-Methyl-1H-pyrazol-4-yl)-[1,2,4]oxadiazol-3-yl]-cyclobutyl}-phenyl)-pyrazin-2-ylamine], the results for the IC50 in experiment [1] (Homo sapiens) and in experiment [2] were 16 nM and 0.7 nM, respectively.

On to `Cc1cc(-c2ccc(C3(c4noc(-c5cnn(C)c5)n4)CCC3)cc2)cnc1N` [Example 221, 3-Methyl-5-(4-{1-[5-(1-methyl-1H-pyrazol-4-yl)-[1,2,4]oxadiazol-3-yl]-cyclobutyl}-phenyl)-pyridin-2-ylamine], for which the IC50 in experiment [1] (Homo sapiens) is 47 nM; in experiment [2] it was 1.9 nM.

With `Cc1nc(-c2ccc(C3(c4noc(-c5cnn(C)c5)n4)CCC3)cc2)cnc1N` [Example 222, 3-Methyl-5-(4-{1-[5-(1-methyl-1H-pyrazol-4-yl)-[1,2,4]oxadiazol-3-yl]-cyclobutyl}-phenyl)-pyrazin-2-ylamine], the 50% inhibitory concentration (IC50) in experiment [1] (Homo sapiens) was 44 nM; in experiment [2] it was 2.2 nM.

In the case of `CC(C)(C#N)NC(=O)Cn1cc(-c2nc(C3(c4ccc(-c5cnc(N)nc5)cc4)CCC3)no2)cn1` [Example 223, 2-[4-(3-{1-[4-(2-Amino-pyrimidin-5-yl)-phenyl]-cyclobutyl}-[1,2,4]oxadiazol-5-yl)-pyrazol-1-yl]-N-(cyano-dimethyl-methyl)-acetamide], the values for the IC50 in experiment [1] (Homo sapiens) and in experiment [2] were 460 nM and 1.8 nM, respectively.

As for `Nc1ncc(-c2ccc(C3(c4noc(-c5cnn(CC(=O)NCC6CCCO6)c5)n4)CCC3)cc2)cn1` (centres unmarked) [Example 224, 2-[4-(3-{1-[4-(2-Amino-pyrimidin-5-yl)-phenyl]-cyclobutyl}-[1,2,4]oxadiazol-5-yl)-pyrazol-1-yl]-N-(tetrahydro-furan-2-ylmethyl)-acetamide], the half-inhibitory concentration (IC50) in experiment [1] (Homo sapiens) was 64 nM; in experiment [2], 2.8 nM.

`CS(=O)(=O)CCNC(=O)Cn1cc(-c2nc(C3(c4ccc(-c5cnc(N)nc5)cc4)CCC3)no2)cn1` [Example 225, 2-[4-(3-{1-[4-(2-Amino-pyrimidin-5-yl)-phenyl]-cyclobutyl}-[1,2,4]oxadiazol-5-yl)-pyrazol-1-yl]-N-(2-methanesulfonyl-ethyl)-acetamide]: the 50% inhibitory concentration (IC50) in experiment [1] (Homo sapiens) was more than 5000 nM; in experiment [2], 0.89 nM.

As for `Nc1ncc(-c2ccc(C3(c4noc(-c5cnn(C6CCS(=O)(=O)C6)c5)n4)CCC3)cc2)cn1` (centres unmarked) [Example 226, 5-[4-(1-{5-[1-(1,1-Dioxo-tetrahydro-1lambda6-thiophen-3-yl)-1H-pyrazol-4-yl]-[1,2,4]oxadiazol-3-yl}-cyclobutyl)-phenyl]-pyrimidin-2-ylamine], the IC50 is 45 nM in experiment [1] (Homo sapiens) and 1.2 nM in experiment [2].

Take `NCCn1cc(-c2nc(C3(c4ccc(-c5cnc(N)nc5)cc4)CCC3)no2)cn1` [Example 227, 5-[4-(1-{5-[1-(2-Amino-ethyl)-1H-pyrazol-4-yl]-[1,2,4]oxadiazol-3-yl}-cyclobutyl)-phenyl]-pyrimidin-2-ylamine]: the values for the IC50 in experiment [1] (Homo sapiens) and in experiment [2] were 240 nM and 2.6 nM, respectively.

Consider `COCCNC(=O)Cn1cc(-c2nc(C3(c4ccc(-c5cnc(N)nc5)cc4)CCC3)no2)cn1` [Example 228, 2-[4-(3-{1-[4-(2-Amino-pyrimidin-5-yl)-phenyl]-cyclobutyl}-[1,2,4]oxadiazol-5-yl)-pyrazol-1-yl]-N-(2-methoxy-ethyl)-acetamide], for which the half-maximal inhibitory concentration (IC50) came to 160 nM in experiment [1] (Homo sapiens) and 3.3 nM in experiment [2].

`CC(=O)NCCn1cc(-c2nc(C3(c4ccc(-c5cnc(N)nc5)cc4)CCC3)no2)cn1` [Example 229, N-{2-[4-(3-{1-[4-(2-Amino-pyrimidin-5-yl)-phenyl]-cyclobutyl}-[1,2,4]oxadiazol-5-yl)-pyrazol-1-yl]-ethyl}-acetamide]: the IC50 in experiment [1] (Homo sapiens) was found to be 410 nM; in experiment [2] it was 6 nM.

For `CSCCn1cc(-c2nc(C3(c4ccc(-c5cnc(N)nc5)cc4)CCC3)no2)cn1` [Example 230, 5-[4-(1-{5-[1-(2-Methylsulfanyl-ethyl)-1H-pyrazol-4-yl]-[1,2,4]oxadiazol-3-yl}-cyclobutyl)-phenyl]-pyrimidin-2-ylamine], the IC50 came to 64 nM in experiment [1] (Homo sapiens) and 1.3 nM in experiment [2].

In the case of `CS(=O)(=O)CCn1cc(-c2nc(C3(c4ccc(-c5cnc(N)nc5)cc4)CCC3)no2)cn1` [Example 231, 5-[4-(1-{5-[1-(2-Methanesulfonyl-ethyl)-1H-pyrazol-4-yl]-[1,2,4]oxadiazol-3-yl}-cyclobutyl)-phenyl]-pyrimidin-2-ylamine], the IC50 in experiment [1] (Homo sapiens) was determined as 61 nM; in experiment [2], 2.3 nM.

On to `Nc1ncc(-c2ccc(C3(c4noc(-c5cnn(CCN6CCOCC6)c5)n4)CCC3)cc2)cn1` [Example 232, 5-[4-(1-{5-[1-(2-Morpholin-4-yl-ethyl)-1H-pyrazol-4-yl]-[1,2,4]oxadiazol-3-yl}-cyclobutyl)-phenyl]-pyrimidin-2-ylamine], for which the half-maximal inhibitory concentration (IC50) in experiment [1] (Homo sapiens) was found to be 26 nM; in experiment [2], 1.8 nM.

For `Nc1ncc(-c2ccc(C3(c4noc(-c5cnn(C6CCNCC6)c5)n4)CCC3)cc2)cn1` [Example 233, 5-(4-{1-[5-(1-Piperidin-4-yl-1H-pyrazol-4-yl)-[1,2,4]oxadiazol-3-yl]-cyclobutyl}-phenyl)-pyrimidin-2-ylamine], the concentration for half-maximal inhibition (IC50) in experiment [1] (Homo sapiens) stood at 700 nM; in experiment [2], 9.8 nM.

Take `COC1CCN(C(=O)Cn2cc(-c3nc(C4(c5ccc(-c6cnc(N)nc6)cc5)CCC4)no3)cn2)CC1` [Example 234, 2-[4-(3-{1-[4-(2-Amino-pyrimidin-5-yl)-phenyl]-cyclobutyl}-[1,2,4]oxadiazol-5-yl)-pyrazol-1-yl]-1-(4-methoxy-piperidin-1-yl)-ethanone]: the concentration for half-maximal inhibition (IC50) is 82 nM in experiment [1] (Homo sapiens) and 3.5 nM in experiment [2].
